Experimental data published in PubChem BioAssay AID179 (DTP/NCI, 2004).
Activity calls are given as the source filed them.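 How the source made its calls: active means compounds giving half or more protection of infected cells from virus-caused growth loss, again on retest; inactive means the rest.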

Tested on: CEM cells HIV-1 protection, formazan growth assay
Assay: NCI AIDS Antiviral Assay
Conditions: for IC50: measured here: growth of uninfected CEM cells
Outline: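 Human CEM cells, uninfected and HIV-1-infected, exposed to five drug concentrations; growth measured by soluble formazan assay and scored as percent protection from infection, with protecting compounds retested.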

SMILES | EC50 | IC50 | outcome
C(#C[PH+](c1ccccc1)c1ccccc1)c1ccccc1.C(#C[PH+](c1ccccc1)c1ccccc1)c1ccccc1.C(#C[PH+](c1ccccc1)c1ccccc1)c1ccccc1.[C-]#[O+].[C-]#[O+].[C-]#[O+].[Cr] | > 0.55 µM | > 0.55 µM | 
COc1cc2c3c(c1)SC(C)C(=O)N3CCN2 (stereo not drawn) | > 200 µM | 105 µM | 
O=C1C=C2C3c4c(cc(O)cc4C4c5c(O)cc6c(c5[C@@H]5C(c7ccc(O)cc7)C1C(=O)[C@@]25[C@@H]4c1ccc(O)cc1)[C@@H](c1cc(O)cc(O)c1)[C@H](c1ccc(O)cc1)O6)O[C@H]3c1ccc(O)cc1 (stereo partly drawn) | > 15.8 µM | 10.7 µM | 
C#CC1=CC(=O)C(OC)=CC1=O | > 200 µM | 31.6 µM | 
COc1cccc(C2CO2)c1 (stereo not drawn) | > 200 µM | 151 µM | 
N#CC[P+](c1ccccc1)(c1ccccc1)c1ccccc1 | > 200 µM | 141 µM | 
CC1(C)Cc2ccccc2C(C)(Cl)C(=O)N1 (stereo not drawn) | 191 µM | > 200 µM | 
Cn1c2c(O)c(O)ccc2c(=O)c2c(O)cc3c(c21)C=CC(C)(C)O3 | > 200 µM | > 200 µM | 
CCC[CH2][Sn]1([CH2]CCC)[O]C(=O)c2cc(C)ccc2[O]1 | > 9.33 µM | 3.09 µM | 
CN/N=C/c1c2c(O)c3c(O)c(C)c4c(c3c1O)C(=O)C(C)(O/C=C/C(OC)C(C)C(OC(C)=O)C(C)C(O)C(C)C(O)C(C)/C=C/C=C(/C)C(=O)N2)O4 (stereo not drawn) | > 200 µM | 26.3 µM | 
O=C(c1cccc([N+](=O)[O-])c1)c1c(O)c2ccccc2oc1=O | > 200 µM | 95.5 µM | 
CCC[CH2][Sn]([CH2]CCC)([O]N(C)C(=O)c1ccc(Br)cc1)[O]N(C)C(=O)c1ccc(Br)cc1 | > 10.5 µM | 1.78 µM | 
CCC[C@H]1[C@H](CCC)[C@@]2(OC(=O)C3=C2CCC=C3)[C@]12OC(=O)C1=C2CCC=C1 | > 107 µM | 20 µM | 
CSc1snc2sc3c(Cl)nnnc3c12 |  |  | inactive
Cc1ccccc1NC(=O)CSc1nnc(Cc2ccccc2)o1 | > 263 µM | 234 µM | 
COC(=O)C12CCC(C(F)(F)C1=O)C2(C)C (stereo not drawn) | > 200 µM | > 200 µM | 
COc1ccc(-c2c3c(nc4[nH]c(=S)[nH]c(=S)c24)CCCC3)cc1OC | > 200 µM | 49 µM | 
Cc1nc2cccc(F)c2c(=O)n1-c1nnc(C(F)(F)F)s1 | > 200 µM | 4.47 µM | 
CCN(CC)c1ccc(C(=C2C=CC(=[N+](CC)CC)C=C2)c2ccccc2)cc1 |  |  | inactive
CCOC(=O)c1c(C)[nH]c(=S)c(C#N)c1-c1cccc2ccccc12 | > 200 µM | 28.8 µM | 
CCOC(=O)/C(=C\c1ccc(C)cc1)[Se]c1ccccc1 | > 5.75 µM | > 5.75 µM | 

SMILES | EC50 | IC50 | outcome
CCC(C)C(CC)(C(=O)O)C(=O)O (stereo not drawn) | > 1320 µM | 380 µM | 
O=C1C(CN2CCCCC2)CCC1CN1CCCCC1 (stereo not drawn) | > 200 µM | 8.13 µM | 
O=C1CC(c2ccsc2)NC(=O)N1CCCl (stereo not drawn) | > 200 µM | > 200 µM | 
NC(=S)N/N=C(/CC(=O)c1ccccc1)C(=O)Nc1ccc(Cl)c(Cl)c1 | > 87.1 µM | > 87.1 µM | 
CC[C@@H]1CC[C@@H]2[C@H](CC[C@]3(C)[C@@H](O[N+](=O)[O-])CC[C@@H]23)[C@H]1C(C)=O |  |  | inactive
O=C1NC2C(NC(=O)N2Cl)N1Cl (stereo not drawn) | > 200 µM | > 200 µM | 
COC(=O)c1cc(C(=CCCCCCl)c2cc(Cl)c(OC)c(C(=O)OC)c2)cc(Cl)c1OC | 29.5 µM | > 200 µM | 
COc1ccccc1N1C(=O)/C(=C\c2cccc(Oc3ccccc3)c2)S(=O)(=O)C1c1ccccc1 (stereo not drawn) | > 200 µM | 36.3 µM | 
C[N+]1(CCC(C(N)=O)(c2ccccc2)c2ccccc2)CCCC12CCCCC2 (stereo not drawn) |  |  | inactive
C=C1CC(COc2ccc3c(C)cc(=O)oc3c2)(c2ccccc2)OC1=O (stereo not drawn) | > 200 µM | 0.603 µM | 
CSc1c(N(C)C)c(=O)c1=S | > 200 µM | 4.9 µM | 
CC(=O)OCC1OC(n2c(-c3ccc(Cl)cc3)cc(-c3ccccc3)c(C#N)c2=S)C(OC(C)=O)C(OC(C)=O)C1OC(C)=O (stereo not drawn) | > 200 µM | 145 µM | 
OCC1OC(n2cnc3c(SSc4ncnc5c4ncn5C4OC(CO)C(O)C4O)ncnc32)C(O)C1O (stereo not drawn) | > 200 µM | > 200 µM | 
C=C(CC)C[C@@H]1C[C@]2(C(=O)OC)c3[nH]c4ccccc4c3CCN2C1=O | > 200 µM | 36.3 µM | 
Nc1ncc(Br)c(NCC2(CO)CCC2)n1 | > 200 µM | 15.8 µM | 
CN(C)c1nc(NN)c2c(-c3ccccc3)c(-c3ccccc3)oc2n1 | > 100 µM | > 100 µM | 
C=C1C(=O)C[C@@]23CCC[C@@]12CC(OCOC)C3 (stereo partly drawn) |  |  | inactive
CCN1CC2(C)CC[C@@H](OC)C34[C@@H]2[C@H](OC(C)=O)C2(OCO[C@@]25C[C@H](OC)C2C[C@]3(O)[C@@H]5[C@H]2O)[C@H]14 |  |  | inactive
COc1ccccc1NC(=S)N/C=C(\C#N)S(=O)(=O)c1ccc(C)cc1 | > 200 µM | > 200 µM | 
CC(C)=CCN1Cc2cc(Cl)cc3[nH]c(=S)n(c23)CC1C (stereo not drawn) |  | 26.9 µM | active
C=CCNC(=S)Nc1ccc(Cl)cc1 | > 200 µM | 120 µM | 

SMILES | EC50 | IC50 | outcome
O=C(NCCCCCN1CCC2(CCCCC2)CC1)C(C1CCCCC1)C1CCCCC1 | > 100 µM | 9.33 µM | 
CC1(CO)CCCC/C1=N\Nc1cc([N+](=O)[O-])cc([N+](=O)[O-])c1 (stereo not drawn) | > 501 µM | 19.1 µM | 
COC(=O)Nc1cn2c(n1)sc1ccccc12 | > 200 µM | 15.8 µM | 
OC1=C2CCCCCC2=[N+]2CCCCC2C1 (stereo not drawn) | > 200 µM | > 200 µM | 
CC1(C)OC[C@H](COCOP2(=O)Oc3ccc4ccccc4c3-c3c(ccc4ccccc34)O2)O1 | > 200 µM | 34.7 µM | 
CCOC(=O)C(=Cc1ccc(C(=O)OC)cc1)C(=O)OCC | > 85.1 µM | 12.6 µM | 
CCOC(=O)C(C)c1nc2cc(F)c(N3CCOCC3)cc2[nH]c1=O (stereo not drawn) | > 200 µM | 95.5 µM | 
CCCCc1ccc(Nc2ncc3ncn(COCCO)c3n2)cc1 | > 200 µM | 51.3 µM | 
Nc1ccc2cc(S(=O)(=O)O)c(N=Nc3ccc(-c4ccc(N=Nc5c(S(=O)(=O)O)cc6cc(S(=O)(=O)O)cc(N)c6c5O)cc4)cc3)c(O)c2c1 |  |  | inactive
Cn1ccnc1.Cn1ccnc1.Cn1ccnc1.Cn1ccnc1.[O-][Cl+3]([O-])([O-])[O-].[Pt+2] | > 200 µM | > 200 µM | 
CCCCCCCCCc1cc(=O)c2ccc(O)cc2o1 | > 1.91 µM | > 1.91 µM | 
CCOC(=O)C1Nc2ccccc2[C@H]2OCC[C@@H]12 (stereo partly drawn) | > 525 µM | > 525 µM | 
O=S(=O)(c1ccccc1)N1CC2CC(Br)C(Br)CC21 (stereo not drawn) | > 45.7 µM | > 45.7 µM | 
c1csc(-c2ccc(-c3ccc(-c4cccs4)s3)s2)c1 | > 200 µM | > 200 µM | 
Oc1ccc(/C=C/c2cc(O)cc3c2[C@@H](c2cc(O)cc4c2[C@H](c2cc(O)cc5c2[C@@H](c2cc(O)cc(O)c2)[C@H](c2ccc(O)cc2)O5)[C@@H](c2ccc(O)cc2)O4)[C@H](c2ccc(O)cc2)O3)cc1 | 12.3 µM | 15.8 µM | 
O=C1NC2C(=O)N(Cc3ccccc3)C(=O)C2N1 (stereo not drawn) | > 29.5 µM | > 29.5 µM | 
Cc1cccc2c1CC(Cc1ccccc1C(=O)O)C2=O (stereo not drawn) | > 200 µM | > 200 µM | 
O=C(/C(=C\C(=O)c1cccs1)c1ccsc1)c1ccc(Br)cc1 |  |  | inactive
COc1ccc(C)[n+]([O-])n1 | > 200 µM | > 200 µM | 
C[C@H](CS)C(=O)N1c2ccccc2C[C@H]1C(=O)O | > 200 µM | > 200 µM | 
CC(=O)Cc1cc(=O)c2c(C)cc(O)c(C3OC(CO)C(O)C(O)C3O)c2o1 (stereo not drawn) | 31.6 µM | 316 µM | 

SMILES | EC50 | IC50 | outcome
C=C(C)C1CC[C@@](C)(O)[C@H](C#N)C1 (stereo partly drawn) | > 200 µM | > 200 µM | 
CC(=O)Nc1ccc(C(=O)N2N=C(C)/C(=C/c3cccc(O)c3)C2=O)cc1 | > 138 µM | > 138 µM | 
Cc1nc(SCC(=O)Nc2ccc(Cl)cc2)c2sc(=S)n(-c3ccccc3)c2n1 | > 200 µM | > 200 µM | 
O=c1cc(C(F)(F)F)c2cc3c(cc2o1)NCCC3 | > 9.77 µM | > 9.77 µM | 
O=C1c2ccccc2CC12CCC1(CC2)OCCO1 | > 200 µM | > 200 µM | 
COC(=O)c1cc(C(=C2CC2)c2cc(Br)c(OC)c(C(=O)OC)c2)cc(Br)c1OC | > 200 µM | 14.1 µM | 
CC/C=C/c1cc2c(c3[nH]ccc13)[C@@H](C)CC2C (stereo partly drawn) (tested in a mixture with another compound) |  |  | inactive
N#Cc1c(=O)n(O)c2ccccc2[n+]1[O-] | > 200 µM | > 200 µM | 
OC1COCOC1C(O)C1OCOCC1O (stereo not drawn) | > 200 µM | > 200 µM | 
CC(=O)NC(C)(C)C1CCC(C)=C(c2ccccc2)C1 (stereo not drawn) | > 95.5 µM | 47.9 µM | 
O=c1[nH]c(=O)n2n1C1C=CC2CC1 | > 200 µM | > 200 µM | 
COc1ccc([N+](=O)[O-])c2c(NCC(O)CO)ccnc12 (stereo not drawn) | > 200 µM | 29.5 µM | 
CC1(C)CC(=O)c2c(nc3c(ccc4ccccc43)c2-c2ccc(NC(=O)CCCC(=O)Nc3ccc(-c4c5c(nc6c4ccc4ccccc46)CC(C)(C)CC5=O)cc3)cc2)C1 | > 50.1 µM | > 50.1 µM | 
CSC(=NCCN=C(NS(=O)(=O)c1ccc(Cl)cc1)SC)NS(=O)(=O)c1ccc(Cl)cc1 | > 200 µM | > 200 µM | 
CC(C)N1CCC2(CC1)NNc1ncccc1-n1cccc12 | > 676 µM | 355 µM | 
Cn1c(=O)c2c(nc3n2CCC(=O)N3CCCCl)n(C)c1=O | > 200 µM | 166 µM | 
CCN(CC)CCN1CCc2c([nH]c3ccccc23)C1c1cccnc1 (stereo not drawn) | > 145 µM | > 145 µM | 
Nc1c(-c2cccc3ccccc23)c2ccc([N+](=O)[O-])cc2c(=O)n1-c1nc2ccccc2s1 | > 50.1 µM | 0.676 µM | 
O=C1/C(=C/c2ccccc2)N=C2Sc3c(nc[nH]c3=O)N12 |  |  | inactive
CN1C(=O)C2CC(O)C(SC3CC4C(=O)N(C)C(=O)C4CC3O)CC2C1=O (stereo not drawn) | > 200 µM | > 200 µM | 
C=Cc1nc2nnc(CCCCCCCCc3nnc4nc(C=C)[nH]n34)n2[nH]1 | > 200 µM | 40.7 µM | 
